How the values were obtained:
[1] = test system: negative pool (serum of individuals not suffering from tuberculosis); assay: ELISA of peptides on negative pool of samples; type: binding, human; conditions: 450 nm
[2] = test system: antibodies contained in pools of serums from patients suffering from active tuberculosis; assay: ELISA screening of peptides on pools of serums from patients with active TB (ratio R); conditions: for ratio R: for 3 of the 4 serums tested
Method: In order to determine which peptides are of interest, a ratio R is calculated, the ratio R being the normalized measurement value of the immune complex formation, relative to the respective background noises of the serums and components used to detect the immune complexes, to, or divided by, the normalized measurement value obtained from the sample derived from a healthy individual relative to the respective background noises of the serums and components used to detect the immune complexes.
In order to determine the immunogenicity of the peptides, they are tested using the following ELISA test:
The peptides are fixed on a Maxisorp (high binding) plate: Incubation overnight at 4° C., concentration of the protein in μg/ml from 20 to 50.
The wells are rinsed with 300 μL of phosphate buffered saline (PBS).
The “wells” are blocked for 2 hours at ambient temperature (19° C.-25° C.) with 200 μL of bovine serum albumin (BSA) 2% and 0.01% of Tween 20.
The wells are rinsed with 200 μL of PBS.
One deposits 100 μL of serums from patients suffering from active TA diluted at 1/100th in blocking solution and incubates for one hour at 37° C.
Perform 3 washes (300 μL) PBS-Tween 20 (0.05%).
One adds 100 μL of antibodies conjugated with peroxidase, diluted at 1/20,000 with blocking solution and incubates for 1 h at 37° C.
One adds 100 μL of 3,3′,5,5′-tetramethylbenzidine (TMB) and incubates for 20 minutes in the dark.
One deposits 50 μL of sulfuric acid at 1N.
A spectrophotometer is used at 450 nm to read the quantity of TMB converted by the peroxidase (indicative of the formation of an immune complex between the peptides and the antibodies contained in the serum).

Row | Sequence | OD Negative pool [1] | ratio R [2] | ratio ([2]; for both pools of patients) | Ratio Positive pool 1 ([2]; positive pool 1) | Ratio Positive pool 2 ([2]; positive pool 2)
1 | CNNGDPICSDGNRWR (derived from Rv3452) [Peptide D7] | 0.303 | greater than 1.5 | > 1.5 | 1.7 | 1.7
2 | DADARVAVPRRDDL (DADARVAVPGRRDDL; derived from LipW) [Peptide W7] |  | greater than 1.5 |  |  | 
3 | TAACPDAEWFARGR (TAACPDAEVVFARGR; derived from Rv2301) [Peptide Z1] |  | greater than 1.5 |  |  | 

Source: US20210199657A1, “I[…] AND USE THEREOF” (priority 2016, published 2021)
